Laboratory results published in ChEMBL document CHEMBL2040771, “Discovery of a potent inhibitor of anaplastic lymphoma kinase with in vivo antitumor activity” (ACS Med Chem Lett, 2010).
Calls of active or inactive are those of the source. The rule behind the calls is not given here.

Tests used:
[1] = Plasma clearance in SCID mouse at 1 mg/kg, iv by LC/MS/MS analysis; type: ADME, organism-based; parameters: dose 1 mg/kg, route intravenous
[2] = Volume of distribution in SCID mouse at 1 mg/kg, iv; type: ADME, organism-based; parameters: dose 1 mg/kg, route intravenous; conditions: in vivo
[3] = Growth inhibition of ALK-positive human SUP-M2 cells by MTS assay; type: functional, cell-based
SUP-M2 [4] = experiment: Induction apoptosis in ALK-positive human SUP-M2 cells assessed as activation of caspase 3/7 by fluorometric assay; type: functional, cell-based
K562 = experiment: Induction apoptosis in ALK-negative human K562 cells assessed as activation of caspase 3/7 by fluorometric assay; type: functional, cell-based
[5] = AUC in SCID mouse at 10 mg/kg, po; type: ADME, organism-based; parameters: dose 10 mg/kg, route oral; conditions: plasma
[6] = Oral bioavailability in SCID mouse at 10 mg/kg; type: ADME, organism-based; conditions: in vivo
[7] = biological target: Serine/threonine-protein kinase PLK4 (Homo sapiens) (UniProt O00444); experiment: Inhibition of PLK4 at 1 uM
[8] = biological target: Serine/threonine-protein kinase PLK4 (Homo sapiens) (UniProt O00444); experiment: Inhibition of PLK4 at 0.1 uM
[9] = biological target: Protein-tyrosine kinase 2-beta (Homo sapiens) (UniProt Q14289); experiment: Inhibition of PYK2 at 1 uM
[10] = biological target: Protein-tyrosine kinase 2-beta (Homo sapiens) (UniProt Q14289); experiment: Inhibition of PYK2 at 0.1 uM
[11] = biological target: Proto-oncogene tyrosine-protein kinase ROS (Homo sapiens) (UniProt P08922); experiment: Inhibition of ROS at 1 uM
[12] = biological target: Ribosomal protein S6 kinase alpha-2 (Homo sapiens) (UniProt Q15349); experiment: Inhibition of RPS6KA2 at 0.1 uM
[13] = biological target: Tyrosine-protein kinase Srms (Homo sapiens) (UniProt Q9H3Y6); experiment: Inhibition of SRMS at 0.1 uM
[14] = biological target: Serine/threonine-protein kinase ULK3 (Homo sapiens) (UniProt Q6PHR2); experiment: Inhibition of ULK3 at 1 uM
[15] = biological target: Serine/threonine-protein kinase ULK3 (Homo sapiens) (UniProt Q6PHR2); experiment: Inhibition of ULK3 at 0.1 uM
[16] = biological target: Serine/threonine-protein kinase 32B (Homo sapiens) (UniProt Q9NY57); experiment: Inhibition of YANK2 at 1 uM
Mus musculus [17] = experiment: Toxicity in SCID mouse xenografted with human SUP-M2 cells at 30 mg/kg, po BID for 12 days; type: organism-based; parameters: dose 30 mg/kg, route oral; conditions: in vivo, 288 h
Mus musculus [18] = experiment: Toxicity in SCID mouse xenografted with human SUP-M2 cells at 55 mg/kg, po BID for 12 days; type: organism-based; parameters: dose 55 mg/kg, route oral; conditions: in vivo, 288 h
SUP-M2 [19] = experiment: Antitumor activity against ALK-positive human SUP-M2 cells xenografted in po dosed SCID mouse bid after 12 days; type: functional, organism-based
[20] = Plasma clearance in beagle dog at 1 mg/kg, iv by LC/MS/MS analysis; type: ADME, organism-based, Canis lupus familiaris; parameters: dose 1 mg/kg, route intravenous
[21] = Volume of distribution in beagle dog at 1 mg/kg, iv; type: ADME, organism-based, Canis lupus familiaris; parameters: dose 1 mg/kg, route intravenous; conditions: in vivo
[22] = Half life in beagle dog at 10 mg/kg, po; type: ADME, organism-based, Canis lupus familiaris; parameters: dose 10 mg/kg, route oral; conditions: in vivo
[23] = Plasma protein binding in mouse; type: ADME, cell-free; conditions: read-out: PPB (converted)
[24] = Plasma concentration in SCID mouse xenografted with ALK-positive human SUP-M2 cells at 10 mg/kg, po bid for 12 days; type: ADME, organism-based; parameters: dose 10 mg/kg, route oral
[25] = Plasma concentration in SCID mouse xenografted with ALK-positive human SUP-M2 cells at 30 mg/kg, po bid for 12 days; type: ADME, organism-based; parameters: dose 30 mg/kg, route oral
[26] = Drug uptake in tumor lysates in SCID mouse xenografted with ALK-positive human SUP-M2 cells at 55 mg/kg, po bid for 12 days; type: ADME, organism-based, Neoplasm; parameters: dose 55 mg/kg, route oral; conditions: read-out: Drug uptake
[27] = Antitumor activity against ALK-positive human SUP-M2 cells xenografted in SCID mouse assessed as partial tumor regression at 30 mg/kg, po bid after 12 days; type: functional
SUP-M2 [28] = experiment: Antitumor activity against ALK-positive human SUP-M2 cells xenografted in SCID mouse assessed as complete tumor regression at 55 mg/kg, po bid after 12 days; type: functional, organism-based; parameters: dose 55 mg/kg
[29] = Inhibition of FLT3 ITD mutant at 0.1 uM
[30] = biological target: Focal adhesion kinase 1 (Homo sapiens) (UniProt Q05397); experiment: Inhibition of FAK at 0.1 uM
[31] = tested on: Epidermal growth factor receptor (Homo sapiens), P00533 [L861Q]; experiment: Inhibition of EGFR L861Q mutant at 1 uM; type: protein assay
[32] = tested on: Epidermal growth factor receptor (Homo sapiens), P04626+P00533+Q15303+P21860 [UNDEFINED MUTATION]; experiment: Inhibition of EGFR L747 to E749 deletion, A750P mutant at 1 uM; type: protein assay
[33] = biological target: Epidermal growth factor receptor (Homo sapiens) (UniProt P00533); experiment: Inhibition of EGFR at 0.1 uM
[34] = biological target: Macrophage colony-stimulating factor 1 receptor (Homo sapiens) (UniProt P07333); experiment: Inhibition of CSF1R at 0.1 uM
[35] = biological target: Macrophage colony-stimulating factor 1 receptor (Homo sapiens) (UniProt P07333); experiment: Inhibition of CSF1R at 1 uM
[36] = tested on: Receptor-type tyrosine-protein kinase FLT3 (Homo sapiens), P36888 [N841I]; experiment: Inhibition of FLT3 N841I mutant at 0.1 uM
[37] = biological target: Vascular endothelial growth factor receptor 3 (Homo sapiens) (UniProt P35916); experiment: Inhibition of FLT4 at 1 uM
[38] = biological target: Vascular endothelial growth factor receptor 3 (Homo sapiens) (UniProt P35916); experiment: Inhibition of FLT4 at 0.1 uM
[39] = biological target: Cyclin-G-associated kinase (Homo sapiens) (UniProt O14976); experiment: Inhibition of GAK at 1 uM
[40] = biological target: Mitogen-activated protein kinase 8 (Homo sapiens) (UniProt P45983); experiment: Inhibition of JNK1 at 1 uM
[41] = biological target: Mitogen-activated protein kinase 9 (Homo sapiens) (UniProt P45984); experiment: Inhibition of JNK2 at 1 uM
[42] = tested on: Mast/stem cell growth factor receptor Kit (Homo sapiens), P10721 [D816V]; experiment: Inhibition of KIT D816V mutant at 1 uM
[43] = biological target: Leukocyte tyrosine kinase receptor (Homo sapiens) (UniProt P29376); experiment: Inhibition of LTK at 1 uM
[44] = biological target: Dual specificity mitogen-activated protein kinase kinase 1 (Homo sapiens) (UniProt Q02750); experiment: Inhibition of MEK1 at 1 uM
[45] = biological target: Dual specificity mitogen-activated protein kinase kinase 1 (Homo sapiens) (UniProt Q02750); experiment: Inhibition of MEK1 at 0.1 uM
[46] = biological target: Dual specificity mitogen-activated protein kinase kinase 4 (Homo sapiens) (UniProt P45985); experiment: Inhibition of MEK4 at 1 uM
[47] = biological target: Dual specificity mitogen-activated protein kinase kinase 4 (Homo sapiens) (UniProt P45985); experiment: Inhibition of MEK4 at 0.1 uM
[48] = biological target: Serine/threonine-protein kinase 3 (Homo sapiens) (UniProt Q13188); experiment: Inhibition of MST2 at 0.1 uM
[49] = biological target: Serine/threonine-protein kinase PAK 3 (Homo sapiens) (UniProt O75914); experiment: Inhibition of PAK3 at 0.1 uM
[50] = biological target: T1, ALK tyrosine kinase receptor (Homo sapiens, UniProt Q9UM73); conditions: 0.1 uM
Description: Inhibition of ALK at 0.1 uM

[51] = biological target: T1, ALK tyrosine kinase receptor; conditions: 1 uM
Description: Inhibition of ALK at 1 uM

Protein-tyrosine kinase 2-beta (Homo sapiens), sequence (Q14289 whole entry, looked up): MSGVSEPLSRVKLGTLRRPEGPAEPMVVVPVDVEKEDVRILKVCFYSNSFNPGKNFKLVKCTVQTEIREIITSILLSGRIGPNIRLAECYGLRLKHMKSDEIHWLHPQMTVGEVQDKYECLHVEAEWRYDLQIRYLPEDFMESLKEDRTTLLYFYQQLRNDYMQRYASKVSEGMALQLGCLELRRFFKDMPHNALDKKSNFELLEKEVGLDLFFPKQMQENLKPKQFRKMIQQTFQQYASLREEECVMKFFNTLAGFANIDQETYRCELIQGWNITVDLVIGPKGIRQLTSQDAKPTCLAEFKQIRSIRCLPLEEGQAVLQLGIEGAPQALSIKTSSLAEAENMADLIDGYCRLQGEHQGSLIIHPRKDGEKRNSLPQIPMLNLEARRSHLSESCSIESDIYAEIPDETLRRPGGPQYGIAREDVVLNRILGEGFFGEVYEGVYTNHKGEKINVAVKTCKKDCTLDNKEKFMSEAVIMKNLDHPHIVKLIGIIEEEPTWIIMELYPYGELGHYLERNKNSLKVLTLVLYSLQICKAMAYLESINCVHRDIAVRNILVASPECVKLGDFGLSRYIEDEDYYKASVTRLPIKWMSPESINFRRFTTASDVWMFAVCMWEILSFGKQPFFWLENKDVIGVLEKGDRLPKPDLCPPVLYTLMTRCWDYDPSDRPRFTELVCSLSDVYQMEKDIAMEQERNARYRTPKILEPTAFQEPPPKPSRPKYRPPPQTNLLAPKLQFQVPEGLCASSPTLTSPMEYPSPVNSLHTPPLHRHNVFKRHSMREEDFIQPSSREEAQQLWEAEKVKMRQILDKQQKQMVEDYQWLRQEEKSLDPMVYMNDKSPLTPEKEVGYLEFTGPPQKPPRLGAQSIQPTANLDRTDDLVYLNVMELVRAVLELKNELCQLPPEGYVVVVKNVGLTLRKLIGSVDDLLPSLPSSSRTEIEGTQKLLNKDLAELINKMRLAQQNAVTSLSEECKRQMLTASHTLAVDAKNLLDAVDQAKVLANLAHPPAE
Serine/threonine-protein kinase PLK4 (Homo sapiens), sequence (O00444 whole entry): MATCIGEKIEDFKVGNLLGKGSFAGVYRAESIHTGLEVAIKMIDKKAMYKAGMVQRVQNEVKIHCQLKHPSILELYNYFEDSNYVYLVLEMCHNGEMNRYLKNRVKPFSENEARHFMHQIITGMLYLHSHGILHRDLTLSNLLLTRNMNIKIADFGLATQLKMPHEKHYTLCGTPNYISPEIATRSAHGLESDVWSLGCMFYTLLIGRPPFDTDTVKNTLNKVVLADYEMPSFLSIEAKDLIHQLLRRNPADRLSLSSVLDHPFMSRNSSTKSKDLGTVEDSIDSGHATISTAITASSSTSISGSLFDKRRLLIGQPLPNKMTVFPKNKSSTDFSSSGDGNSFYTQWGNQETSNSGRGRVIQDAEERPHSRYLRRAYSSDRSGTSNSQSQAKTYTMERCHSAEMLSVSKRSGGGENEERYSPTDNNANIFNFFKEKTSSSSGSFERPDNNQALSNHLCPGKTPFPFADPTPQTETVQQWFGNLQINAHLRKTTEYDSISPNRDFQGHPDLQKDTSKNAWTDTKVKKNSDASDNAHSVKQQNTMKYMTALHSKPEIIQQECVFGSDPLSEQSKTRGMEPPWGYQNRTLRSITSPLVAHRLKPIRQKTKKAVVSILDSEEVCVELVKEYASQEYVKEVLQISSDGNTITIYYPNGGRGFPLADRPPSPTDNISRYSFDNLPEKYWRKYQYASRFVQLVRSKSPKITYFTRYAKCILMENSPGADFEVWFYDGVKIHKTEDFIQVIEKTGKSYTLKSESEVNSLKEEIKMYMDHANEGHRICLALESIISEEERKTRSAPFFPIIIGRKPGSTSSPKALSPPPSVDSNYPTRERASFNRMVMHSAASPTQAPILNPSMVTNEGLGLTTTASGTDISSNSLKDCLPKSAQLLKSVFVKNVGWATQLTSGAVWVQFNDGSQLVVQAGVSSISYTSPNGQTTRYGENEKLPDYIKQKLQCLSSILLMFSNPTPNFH
Macrophage colony-stimulating factor 1 receptor (Homo sapiens), sequence (P07333 whole entry): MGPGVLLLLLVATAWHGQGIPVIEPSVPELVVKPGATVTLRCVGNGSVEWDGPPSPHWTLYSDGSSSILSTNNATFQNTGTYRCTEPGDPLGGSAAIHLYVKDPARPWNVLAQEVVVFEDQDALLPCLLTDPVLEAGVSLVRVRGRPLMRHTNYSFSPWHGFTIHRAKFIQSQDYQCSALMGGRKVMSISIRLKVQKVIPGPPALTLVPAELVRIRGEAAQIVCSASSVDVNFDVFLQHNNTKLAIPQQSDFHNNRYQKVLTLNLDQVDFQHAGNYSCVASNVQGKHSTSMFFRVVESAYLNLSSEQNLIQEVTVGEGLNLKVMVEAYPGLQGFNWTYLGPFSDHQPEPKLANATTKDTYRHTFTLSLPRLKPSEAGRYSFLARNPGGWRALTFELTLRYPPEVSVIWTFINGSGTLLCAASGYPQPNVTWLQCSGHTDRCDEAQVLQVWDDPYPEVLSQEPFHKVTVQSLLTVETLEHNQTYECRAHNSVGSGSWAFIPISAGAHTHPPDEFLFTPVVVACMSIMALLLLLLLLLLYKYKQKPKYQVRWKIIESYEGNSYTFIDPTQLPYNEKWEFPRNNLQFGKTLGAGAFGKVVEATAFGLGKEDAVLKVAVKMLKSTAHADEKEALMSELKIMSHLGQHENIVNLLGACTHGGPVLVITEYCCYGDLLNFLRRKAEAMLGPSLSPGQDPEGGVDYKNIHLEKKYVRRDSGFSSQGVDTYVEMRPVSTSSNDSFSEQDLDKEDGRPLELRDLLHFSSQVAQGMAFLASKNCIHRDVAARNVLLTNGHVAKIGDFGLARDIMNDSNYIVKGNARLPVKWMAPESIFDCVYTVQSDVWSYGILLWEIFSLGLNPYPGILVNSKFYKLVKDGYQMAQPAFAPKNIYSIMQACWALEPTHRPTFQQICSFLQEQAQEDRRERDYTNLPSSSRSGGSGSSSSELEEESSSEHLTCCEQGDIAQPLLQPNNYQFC
Serine/threonine-protein kinase ULK3 (Homo sapiens), sequence (Q6PHR2 whole entry): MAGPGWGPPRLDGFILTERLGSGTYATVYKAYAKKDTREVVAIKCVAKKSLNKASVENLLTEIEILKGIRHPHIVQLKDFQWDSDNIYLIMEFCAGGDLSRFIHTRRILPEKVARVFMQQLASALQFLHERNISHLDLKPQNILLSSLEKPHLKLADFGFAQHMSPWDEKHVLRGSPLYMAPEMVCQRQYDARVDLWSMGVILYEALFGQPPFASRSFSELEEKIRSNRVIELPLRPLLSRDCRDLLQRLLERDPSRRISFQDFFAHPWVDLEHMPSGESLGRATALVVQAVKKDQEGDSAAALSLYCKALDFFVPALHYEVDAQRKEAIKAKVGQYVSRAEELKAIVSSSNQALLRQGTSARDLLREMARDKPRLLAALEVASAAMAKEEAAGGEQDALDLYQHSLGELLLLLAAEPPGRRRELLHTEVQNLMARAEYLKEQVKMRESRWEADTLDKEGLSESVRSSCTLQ
Dual specificity mitogen-activated protein kinase kinase 4 (Homo sapiens), sequence (P45985 whole entry): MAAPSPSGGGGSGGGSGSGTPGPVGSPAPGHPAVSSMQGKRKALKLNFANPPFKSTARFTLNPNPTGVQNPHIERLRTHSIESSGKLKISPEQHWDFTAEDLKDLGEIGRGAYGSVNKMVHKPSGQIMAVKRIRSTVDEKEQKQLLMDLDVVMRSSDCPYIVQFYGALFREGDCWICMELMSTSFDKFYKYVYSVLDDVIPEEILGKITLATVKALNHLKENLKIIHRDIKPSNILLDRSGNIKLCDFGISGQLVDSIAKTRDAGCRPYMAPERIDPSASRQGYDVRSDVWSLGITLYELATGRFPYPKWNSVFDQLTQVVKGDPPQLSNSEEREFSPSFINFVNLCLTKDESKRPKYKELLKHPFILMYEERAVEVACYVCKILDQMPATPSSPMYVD
Dual specificity mitogen-activated protein kinase kinase 1 (Homo sapiens), sequence (Q02750 whole entry): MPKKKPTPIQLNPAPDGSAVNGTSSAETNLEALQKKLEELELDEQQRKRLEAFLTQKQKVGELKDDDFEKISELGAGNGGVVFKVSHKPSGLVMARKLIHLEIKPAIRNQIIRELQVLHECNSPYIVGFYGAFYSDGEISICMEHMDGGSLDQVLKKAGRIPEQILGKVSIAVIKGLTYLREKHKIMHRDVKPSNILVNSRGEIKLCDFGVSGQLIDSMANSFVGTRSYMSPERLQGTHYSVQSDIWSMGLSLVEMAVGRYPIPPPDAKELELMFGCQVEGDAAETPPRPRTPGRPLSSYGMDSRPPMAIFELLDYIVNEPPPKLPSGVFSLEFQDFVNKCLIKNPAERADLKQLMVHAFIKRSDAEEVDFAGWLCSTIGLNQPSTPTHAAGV
Serine/threonine-protein kinase PAK 3 (Homo sapiens), sequence (O75914 whole entry, looked up): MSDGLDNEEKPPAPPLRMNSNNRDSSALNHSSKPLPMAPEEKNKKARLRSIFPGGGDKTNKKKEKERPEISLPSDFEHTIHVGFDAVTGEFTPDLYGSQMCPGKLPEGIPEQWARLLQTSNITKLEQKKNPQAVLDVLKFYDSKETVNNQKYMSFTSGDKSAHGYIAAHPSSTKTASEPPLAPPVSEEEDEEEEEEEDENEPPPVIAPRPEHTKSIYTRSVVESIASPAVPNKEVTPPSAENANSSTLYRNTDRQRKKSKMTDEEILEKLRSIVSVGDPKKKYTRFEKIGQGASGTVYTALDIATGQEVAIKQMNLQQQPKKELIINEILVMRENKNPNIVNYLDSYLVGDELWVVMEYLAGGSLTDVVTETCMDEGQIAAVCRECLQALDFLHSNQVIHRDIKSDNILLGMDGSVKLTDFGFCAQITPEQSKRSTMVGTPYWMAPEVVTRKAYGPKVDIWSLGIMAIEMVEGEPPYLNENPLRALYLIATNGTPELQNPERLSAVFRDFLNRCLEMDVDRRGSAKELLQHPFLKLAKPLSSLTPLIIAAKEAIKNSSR

CCN1C(=O)CCCc2c1ccc(Nc1ncc(Cl)c(N[C@H]3[C@@H](C(N)=O)[C@@H]4C=C[C@H]3C4)n1)c2OC
clearance [1]: 37 mL/min/kg
Vd [2]: 0.9 L/kg
EC50 [3]: 200 nM
Activity (SUP-M2 [4]): Active
Activity (K562): inactive
AUC [5]: 1410 ng·h/mL
bioavailability [6]: 32%
inhibition [7]: 95%
inhibition [8]: 95%
inhibition [9]: 99%
inhibition [10]: 90%
inhibition [11]: 93%
inhibition [12]: < 50%
inhibition [13]: < 50%
inhibition [14]: 94%
inhibition [15]: < 50%
inhibition [16]: 92%
Activity (Mus musculus [17]): Non-toxic
Activity (Mus musculus [18]): Non-toxic
Activity (SUP-M2 [19]): Dose-dependent effect
clearance [20]: 22 mL/min/kg
Vd [21]: 2.1 L/kg
half-life [22]: 1.6 h
fraction unbound [23]: 0.08
concentration at 288 h [24]: 337 ng/mL
concentration at 288 h [25]: 1500 ng/mL
concentration at 288 h [26]: 1180 ng/g
Activity [27]: 100%
Activity (SUP-M2 [28]): Active
inhibition [29]: < 50%
inhibition [30]: 72%
inhibition [31]: 93%
inhibition [32]: 94%
inhibition [33]: < 50%
inhibition [34]: < 50%
inhibition [35]: 91%
inhibition [36]: < 50%
inhibition [37]: 100%
inhibition [38]: 72%
inhibition [39]: 91%
inhibition [40]: 100%
inhibition [41]: 92%
inhibition [42]: 99%
inhibition [43]: 98%
inhibition [44]: 91%
inhibition [45]: < 50%
inhibition [46]: 90%
inhibition [47]: < 50%
inhibition [48]: < 50%
inhibition [49]: < 50%
inhibition [50]: 89%
inhibition [51]: 97%
